Test results published in US20180028480A1, “METHODS OF REDUCING OR PREVENTING OXIDATIVE MODIFICATION OF MEMBRANE POLYUNSATURATED FATTY ACIDS” (Amarin Pharmaceuticals Ireland Limited, priority 2015, published 2018).

What was measured:
[1] = LOOH formation in glucose-treated model membranes, EPA versus EA and ETE (Example 5); format: biochemical; conditions: FIG. 8
Experimental: An experiment was conducted to compare the ability of EPA to prevent lipid hydroperoxide formation in model membranes treated with glucose to two other 20-carbon fatty acids: eicosanoic acid (“EA,” also referred to as arachidic acid, C20:0) and eicosatrienoic acid (“ETE,” C20:3, n-3). All MLV samples were subjected to time-dependent autoxidation by incubating at 37° C. in an uncovered, shaking water bath. This method allows lipid peroxidation to occur gradually without requiring the use of exogenous initiators. Small aliquots (5-100 μL) of each sample were removed, immediately following MLV preparation (0 hr) and after exposing samples to oxidative conditions for 72 or 96 hr, and combined with 1.0 mL of activated CHOD-iodide color reagent. Aliquot volume was reduced with each successive time point to ensure that spectrophotometric readings were within the optimal adsorption range. Test samples were covered and incubated in darkness at room temperature for at least 4 hr. Sample absorbances were then measured against a CHOD blank at 365 nm using a Beckman DU-640 spectrophotometer. The CHOD colorimetric assay is based on the oxidation of iodide (I^−) by lipid hydroperoxide (LOOH) to form triiodide (I3^−), the quantity of which is directly proportional to the amount of LOOH present in the lipid sample. The molar absorptivity (ε) of I3^− is 2.46×10^4 M^−1 cm^−1 at 365 nm.

[2] = X-ray diffraction of glucose-treated DLPC/cholesterol membranes under oxidative conditions (Example 8); conditions: 10.0 μM; 0.6 C/P; glucose-induced lipid peroxidation 72 hours (FIG. 14)
Experimental: Values are reported as mean±S.D. (N=3).
[…] Membranes were reconstituted from DLPC and cholesterol at a C/P mole ratio of 0.6:1 and treated with the various agents to achieve a total drug-to-phospholipid mole ratio of 1:30.
(§1) Multilamellar vesicles (MLVs) were prepared as binary mixtures of POPC and cholesterol at 50 mol %. MLVs with DLPC and cholesterol at cholesterol-to-phospholipid (C/P) mole ratios of 0.1:1 to 1.1:1 were also prepared in a similar manner. Component lipids (in chloroform) were transferred to borosilicate culture tubes and combined with vehicle (ethanol) or an equal volume of EPA, DHA, fenofibrate, niacin or gemfibrozil stock solution(s) and adjusted to achieve a drug-to-phospholipid (D/P) mole ratio of 1:30. Membranes reconstituted from POPC and cholesterol (at 50 mol % cholesterol) were treated with each of the various agents at 5 mol %. Samples were then shell-dried under nitrogen gas and placed under vacuum for 3 hours to remove residual solvent.
After drying, each sample was resuspended in glucose-free or glucose-containing saline buffer to yield a final phospholipid concentration of 2.5 mg/mL. Lipid suspensions were then vortexed for 3 minutes at ambient temperature to form MLVs.
(§2) Membrane samples were oriented for x-ray diffraction analysis as described in Mason, et al., J. Biol. Chem., vol. 281, pages 9337-45 (2006). Briefly, 100 μL aliquots of each MLV preparation (containing 250 μg of phospholipid) were transferred to Lucite sedimentation cells fitted with a removable aluminum foil substrate designed to collect MLVs into a single membrane pellet upon centrifugation. Samples were then loaded into a Sorvall AH-629 swinging bucket ultracentrifuge rotor (DuPont Corp., Wilmington, Del.) and centrifuged at 35,000 g, 5° C., for 1.5 hours.
Following membrane orientation, sample supernatants were aspirated and aluminum foil substrates mounted onto curved glass slides. The membrane samples were then placed in hermetically sealed containers in which temperature and relative humidity were controlled during x-ray diffraction analysis. Data reported in this study were collected at 20° C. and 74% relative humidity.
This technique allows for precise measurement of the unit cell periodicity, or d-space, of the membrane lipid bilayer, which is the distance from the center of one lipid bilayer to the next, including surface hydration.
The presence of cholesterol domains in a given membrane sample results in the production of distinct Bragg (diffraction) peaks that have singular periodicity values of 34 Å and 17 Å. These peaks are typically referred to as first- and second-order cholesterol domain peaks.

[3] = X-ray diffraction of cholesterol-enriched POPC membranes without oxidative conditions (Example 8); conditions: 5 mol %, 50 mol % cholesterol, 15° C., 20° C.
Experimental: Values are mean±S.D. (N=3).
FIGS. 18A-18C show representative x-ray diffraction patterns collected from cholesterol-enriched model membranes treated with vehicle (control), eicosapentaenoic acid (EPA), or docosahexaenoic acid (DHA) and examined at 15° C., 20° C., and 30° C. Membranes were reconstituted from POPC and cholesterol at 50 mol % cholesterol and treated with each of the various agents at 5 mol % (to match treatments used in corresponding lipid dynamics experiments). Each sample was maintained at 74% relative humidity by exposing the samples to a saturated solution of L-(+) tartaric acid. […] DHA, but not EPA or vehicle, induced the formation of cholesterol domains, which are indicated by a distinct set of diffraction peaks (shaded peaks) having a characteristic d-space value of 34 Å and shown to be stable over a broad range of temperatures.
as §1
as §2, with “Samples were then loaded into a Sorvall AH-629 swinging bucket ultracentrifuge rotor (DuPont Corp., Wilmington, Del.) and centrifuged at 35,000 g, 5° C., for 1.5 hours.” left out

[4] = Fluorescence anisotropy, DPH apparent rotational correlation time (Example 8); conditions: POPC, 0 or 50 mol % cholesterol; increasing omega-3 fatty acid concentrations (FIGS. 16A-16B)
From the text: FIGS. 16A-16B show the dose-dependent effects of EPA and DHA on the ARCT measured for DPH in POPC membranes prepared at either 0 or 50 mol % cholesterol. †p=0.0331 versus cognate DHA treatment (5 mol % omega-3 fatty acids (O3FA), no cholesterol); ^§p=0.0016 versus cognate DHA treatment (5 mol % O3FA, 50 mol % cholesterol); ^‡p=0.0032 versus cognate DHA treatment (10 mol % O3FA, 50 mol % cholesterol) (unpaired, two-tailed Student's t-test). Values are mean±S.D. (N=3).
Fluorescence anisotropy experiments were conducted using large unilamellar vesicles (LUVs) of 100 nm diameter of either POPC (or POPC/cholesterol) containing increasing concentrations of EPA or DHA and 1 mol % DPH fluorescent. Briefly, 640 nmol of total lipid (phospholipid and sterol) and 6.4 nmol of fluorescent probe was mixed well and dried under a stream of nitrogen while being warmed gently at 35° C. […]
In order to ensure that the anisotropy values measured for DPH are not influenced by lifetime-induced artifacts, the apparent (average) rotational correlation times (ARCT) were calculated using Perrin's equation: […]
where r0 is the limiting anisotropy of DPH, r is the steady state anisotropy, and is the mean fluorescence lifetime.

CC/C=C\C/C=C\C/C=C\C/C=C\C/C=C\CCCC(=O)O [EPA, cis-5,8,11,14,17-Eicosapentaenoic acid]
LOOH formation compared to vehicle, glucose, glucose and EA, glucose and ETE [1]: significantly less LOOH formation
effect on d-space values [2]: significantly inhibited glucose-induced reductions and peroxidation-induced reductions in d-space values
membrane width (d-space) compared to DHA or vehicle ([3]; 30° C. (FIG. 17)): increased the width (d-space)
membrane cholesterol domain formation ([3]; 30° C. (FIG. 18)): did not induce cholesterol domain formation
DPH apparent rotational correlation time / membrane fluidity [4]: did not alter membrane fluidity
